In US11034742B2, “Peptides with antibiotic potential against Mycobacterium tuberculosis” (LINNANE PHARMA AB, priority 2017, dated 2021):
Entries after “also recorded” stand apart in the source; their conditions may differ. Read-outs that look alike come from different tables or passages of the source. Marks after values point to notes of the source that are not given here. Positions of bridges follow the written chain, without caps; N, C: chain ends. Residues, ends and D or L forms follow the SMILES beside them.

Tests used:
M. tuberculosis = details: Table 1; from Schon et al. 2009; cited from earlier work
[1] = system: M. tuberculosis H37Rv and clinical isolate TB2016/268; format: cell-based, Mycobacterium tuberculosis
[2] = system: M. tuberculosis H37Rv and TB2016/268; format: cell-based, Mycobacterium tuberculosis; details: gold-labelled peptide, 6.3 μM
[3] = molecular target: T1, human neutrophil elastase (HNE) (Homo sapiens, UniProt P08246); assay: Protease sensitivity assay, HNE; format: in vitro ADME; details: isolated human neutrophil elastase (HNE), after 22 hours, 37° C., read-out: peptide breakdown by HNE
T1 construct: purchased Calbiochem (La Jolla, Calif.)
T1 sequence (P08246 30-267): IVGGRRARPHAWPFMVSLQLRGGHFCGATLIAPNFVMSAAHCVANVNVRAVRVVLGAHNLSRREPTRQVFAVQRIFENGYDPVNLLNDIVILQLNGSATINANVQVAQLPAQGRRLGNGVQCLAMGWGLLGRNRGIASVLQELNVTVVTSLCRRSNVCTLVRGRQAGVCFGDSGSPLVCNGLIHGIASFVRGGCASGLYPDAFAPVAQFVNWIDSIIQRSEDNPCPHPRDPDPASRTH
Procedure: (§1) The variant antimicrobial peptide of SEQ ID NO: 3 (1 μg) was incubated at 37° C. with human neutrophil elastase (HNE, 0.4 μg, 29 units/mg; Calbiochem (La Jolla, Calif.), Cathepsin G (0.4 μg, EMD Millipore) and human α-thrombin (0.4 μg Innovative Research) in a total volume of 20 μL for 6 h. Furthermore 2 μg of the variant antimicrobial peptide of SEQ ID NO: 3 was incubated with 0.4 μg of HNE for kinetic study of peptide degradations. The materials were analyzed on 10-20% precast SDS-PAGE Tris-Tricine gels (Life Technologies) and analyzed after staining with Coomassie Blue R-250. […]

Cathepsin G = molecular target: T2, Cathepsin G (Homo sapiens, UniProt P08311); assay: Protease sensitivity assay, Cathepsin G; format: in vitro ADME; details: 37° C., 6 h
T2 construct: purchased EMD Millipore
T2 sequence (P08311 21-244): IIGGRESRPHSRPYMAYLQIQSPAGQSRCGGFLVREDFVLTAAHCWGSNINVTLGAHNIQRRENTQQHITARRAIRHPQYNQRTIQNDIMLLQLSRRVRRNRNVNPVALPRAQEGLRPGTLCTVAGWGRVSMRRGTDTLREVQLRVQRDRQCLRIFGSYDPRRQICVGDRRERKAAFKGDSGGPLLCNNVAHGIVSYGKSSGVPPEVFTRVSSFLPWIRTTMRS
Procedure: as §1

human α-thrombin = molecular target: T3, human α-thrombin (Homo sapiens, UniProt P00734); assay: Protease sensitivity assay, α-thrombin; format: in vitro ADME; details: 37° C., 6 h
T3 construct: human α-thrombin (0.4 μg Innovative Research); purchased Innovative Research
Procedure: as §1

Cytotoxicity, MTT assay = format: cell-based, human; details: human, primary human monocyte-derived macrophages; 6.3 μM peptide concentration; read-out: macrophage viability (MTT)
Procedure: (§2) Human venous blood mononuclear cells were obtained from healthy volunteers using a Lymphoprep density gradient (Axis-Shield, Oslo, Norway) according to the manufacturers instructions. To obtain pure monocytes, the cell suspension was applied to CD14 micro beads (MACS), washed and passed through magnetic column according to manufacturers description. The monocytes were counted (Sysmex), diluted in RPMI medium containing GM-CSF (50 ng/mL) and seeded in 96-well plates (10^5/well) for a week to differentiate into macrophages.
(§3) Primary macrophages were prepared from whole blood (see above). The medium was replaced with fresh medium containing 0, 6.3, 12.5, 25 or 100 μM peptides and incubated for 0, 1, 4 and 24 h in 5% CO2 atmosphere. For cytotoxicity measurement, 10 μl 3-(4,5-dimethylthiazol-2-yl)-2,5 diphenyltetrazolium bromide (MTT) solution (Sigma) was added to each well according to manufacturers instructions, and analyzed in a spectrophotometer at 580 nm.

[4] = system: primary human macrophages; assay: Cytotoxicity, MTT assay; format: cell-based; details: for macrophage viability (MTT): 6.3 μM peptide concentration; for toxicity to human cells / macrophages (in words): primary human macrophages
Procedure: as §2, §3

[5] = system: primary human macrophages; assay: Cytotoxicity, ATPlite (cellular ATP levels); format: cell-based; details: 100 μM, 24 hours
Procedure: as §2
(§4) The variant antimicrobial peptide of SEQ ID NO: 3 cytotoxicity was further examined by PrestoBlue® and ATPlite™ assays. Primary macrophages were treated with 100 μM variant antimicrobial peptide of SEQ ID NO: 3 or 50 μM Staurosporine (S-4400, Sigma) for 24 hours. Cell viability was assessed with PrestoBlue® fluorescence (A13261, Thermo Scientific) and cellular ATP levels using ATPlite™ kit (#6016943, Perkin Elmer) compared to untreated control, according to the manufacturers' instructions.

[6] = system: primary human macrophages; assay: Cytotoxicity, PrestoBlue (reducing metabolites); format: cell-based; details: 100 μM, 24 hours
Procedure: as §2, §4

M. tuberculosis H37Rv [7] = format: in vivo, BALB/c mice; details: 0.83 mg
M. tuberculosis H37Rv [8] = assay: Murine TB model, lung histology and immunohistochemistry; parameters: species or system BALB/c mice; details: mouse, in vivo

Compound | MIC (mg/L) (M. tuberculosis) | MIC (μM) (M. tuberculosis) | Mycobacterial killing efficiency [1] [%] | association of peptide with the mycobacterial membrane (TEM) [2] | metabolised at 22 h [3] [%] | peptide degradation by Cathepsin G (Cathepsin G) | peptide degradation by human α-thrombin (human α-thrombin) | viability at 6.3 µM (Cytotoxicity, MTT assay) [%] | macrophage viability (MTT) [4] [%] | toxicity to human cells / macrophages (in words) [4] | toxicity, cellular ATP levels (ATPlite) [5] | toxicity, reducing metabolites (PrestoBlue) [6] | lung CFU reduction vs control animals (M. tuberculosis H37Rv [7]; five days of daily intra-tracheal treatment) [%] | lung CFU reduction vs control animals (M. tuberculosis H37Rv [7]; three days of daily intra-tracheal treatment) [%] | lung tissue damage, inflammation, bacterial and neutrophil counts (IHC, H&E) (M. tuberculosis H37Rv [8])
CC[C@@H](CO)NCCN[C@@H](CC)CO [Ethambutol] | 5.0* mg/L | 24.5* μM |  |  |  |  |  |  |  |  |  |  |  |  | 
NNC(=O)c1ccncc1 [Isoniazid] | 0.2* mg/L | 1.5* μM |  |  |  |  |  |  |  |  |  |  |  |  | 
CC[C@H](C)[C@@H]1NC(=O)[C@H](CO)NC(=O)[C@H](CCCCN)NC(=O)[C@@H]2CSSC[C@@H](C(=O)N[C@@H](Cc3ccc(O)cc3)C(=O)O)NC(=O)[C@H](CCCCN)NC(=O)[C@@H]3CSSC[C@H](NC(=O)[C@H](CCC(N)=O)NC(=O)[C@H]([C@@H](C)CC)NC(=O)[C@H](CC(=O)O)NC(=O)[C@H](CC(=O)O)NC(=O)[C@H](CCC(=O)O)NC(=O)[C@H](CO)NC(=O)[C@H](Cc4c[nH]c5ccccc45)NC(=O)[C@@H]4CCCN4C(=O)CNC(=O)[C@H](CC(N)=O)NC(=O)[C@@H](NC(=O)CNC(=O)[C@H](Cc4ccccc4)NC(=O)CN)CSSC[C@H](NC(=O)[C@H](Cc4ccc(O)cc4)NC(=O)CNC(=O)CNC(=O)[C@H](CCCCN)NC(=O)[C@H](Cc4ccc(O)cc4)NC(=O)CNC(=O)[C@H](CCCCN)NC1=O)C(=O)N[C@@H](C)C(=O)N[C@@H](CCCNC(=N)N)C(=O)NCC(=O)NCC(=O)N[C@@H](Cc1ccccc1)C(=O)N[C@@H](C(C)C)C(=O)N3)C(=O)N[C@@H](Cc1c[nH]cn1)C(=O)N[C@@H](CC(N)=O)C(=O)N[C@@H](Cc1c[nH]cn1)C(=O)N2 [SEQ ID NO: 3] (H-GFGCNGPWSEDDIQCHNHCKSIKGYKGGYCARGGFVCKCY-OH; disulfide 4-30, 15-37, 19-39 (inferred); N-terminus and C-terminus assumed) |  |  | 73.8 | associated with the mycobacterial envelope within one hour of exposure and disrupted bacterial membranes; also recorded: associated with the mycobacterial membrane | ~50 | only HNE showed peptide degradation | only HNE showed peptide degradation | 87.5 | 87.5 | not Toxic to Human Cells | did not show any toxicity | did not show any toxicity | 86 | 46 | less tissue damage, lower bacterial and neutrophil counts than infected controls; also recorded: low counts of both neutrophils and bacteria in the lungs
CC[C@H](C)[C@@H]1NC(=O)[C@H](C)NC(=O)[C@@H]2CSSC[C@H](NC(=O)CNC(=O)[C@H](Cc3ccccc3)NC(=O)CN)C(=O)N[C@@H](CC(N)=O)C(=O)NCC(=O)N3CCC[C@H]3C(=O)N[C@@H](Cc3c[nH]c4ccccc34)C(=O)N[C@@H](CO)C(=O)N[C@@H](CCC(=O)O)C(=O)N[C@@H](CC(=O)O)C(=O)N[C@@H](CC(=O)O)C(=O)N[C@@H]([C@@H](C)CC)C(=O)N[C@@H](CCC(N)=O)C(=O)N[C@H]3CSSC[C@H](NC(=O)[C@H](C(C)C)NC(=O)[C@H](Cc4ccccc4)NC(=O)CNC(=O)CNC1=O)C(=O)N[C@@H](CCCCN)C(=O)N[C@H](C(=O)N[C@@H](Cc1ccc(O)cc1)C(=O)O)CSSC[C@H](NC(=O)[C@H](Cc1c[nH]cn1)NC(=O)[C@H](CC(N)=O)NC(=O)[C@H](Cc1c[nH]cn1)NC3=O)C(=O)N[C@@H](CCCCN)C(=O)N[C@@H](CO)C(=O)N[C@@H]([C@@H](C)CC)C(=O)N[C@@H](CCCCN)C(=O)NCC(=O)N[C@@H](Cc1ccc(O)cc1)C(=O)N[C@@H](CCCCN)C(=O)NCC(=O)NCC(=O)N[C@@H](Cc1ccc(O)cc1)C(=O)N2 [SEQ ID NO: 4] (H-GFGCNGPWSEDDIQCHNHCKSIKGYKGGYCAIGGFVCKCY-OH; disulfide 4-30, 15-37, 19-39 (inferred); N-terminus and C-terminus assumed) |  |  | 74.8 |  |  |  |  | 86.3 | 86.3 | not Toxic to Human Cells |  |  |  |  | 
